Measurements: PubChem BioAssay (NCI)
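96-well plates; 48 h exposure; 5 concentrations. Endpoints by linear interpolation between flanking doses. Not reached: highest tested concentration assigned. GI50 = concentration required for 50% inhibition of growth. At the TGI there is no net growth.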

How the values were obtained:
Assay in all cases: NCI anticancer screen, dose series, 48 h
[1] = system: 786-0 renal
[2] = system: CAKI-1 renal
[3] = system: COLO 205 colon
[4] = system: DU-145 prostate
[5] = system: EKVX NSCLC
[6] = system: HCT-116 colon
[7] = system: NCI-H23 lung
[8] = system: NCI/ADR-RES ovarian
[9] = system: OVCAR-4 ovarian
[10] = system: SN12C renal

| Compound | TGI [1] | TGI [2] | TGI [3] | TGI [4] | TGI [5] | TGI [6] | TGI [7] | TGI [8] | TGI [9] | TGI [10] | GI50 [1] | GI50 [2] | GI50 [3] | GI50 [4] | GI50 [5] | GI50 [6] | GI50 [7] | GI50 [8] | GI50 [9] | GI50 [10] |
| --- | --- | --- | --- | --- | --- | --- | --- | --- | --- | --- | --- | --- | --- | --- | --- | --- | --- | --- | --- | --- |
| O=C1OC(=O)C2CCCC3CCCC1C32 (stereo not given) | > 100 µM | > 100 µM | > 100 µM | > 100 µM | > 100 µM | > 100 µM | > 100 µM | > 100 µM | > 100 µM | > 100 µM | – | – | – | – | – | – | – | – | – | – |
| CCOC(=O)c1cc(-c2ccccc2)[nH]c1N/N=C/c1ccc(Cl)cc1 | > 100 µM | > 100 µM | > 100 µM | > 100 µM | > 100 µM | > 100 µM | > 100 µM | > 100 µM | > 100 µM | > 100 µM | 50.4 µM | 30.9 µM | 42.5 µM | > 100 µM | 36 µM | 47.6 µM | 79.1 µM | 52.6 µM | 70.9 µM | > 100 µM |
| CCN(CC)C(=S)SCN1C(=O)c2ccccc2S1(=O)=O | > 100 µM | > 100 µM | > 100 µM | > 100 µM | > 100 µM | > 100 µM | > 91.1 µM | > 64.9 µM | > 100 µM | > 100 µM | 31.4 µM | > 70.5 µM | 33.2 µM | 29.4 µM | > 100 µM | 54.2 µM | 45.5 µM | > 44.3 µM | 35.4 µM | 53.7 µM |
| O=NNc1ccc(Sc2ccc(NN=O)cn2)nc1 | > 100 µM | > 100 µM | > 100 µM | > 100 µM | > 100 µM | > 100 µM | > 100 µM | > 100 µM | > 100 µM | > 100 µM | – | – | – | – | – | – | – | – | – | – |
| CO/N=C(\COc1ccc2oc(-c3ccccc3)cc(=O)c2c1)c1ccc(OC)cc1 | 48.9 µM | 69.2 µM | > 100 µM | > 100 µM | > 100 µM | 33.8 µM | > 100 µM | 51.4 µM | 73.9 µM | 44.7 µM | 21.9 µM | 22.7 µM | 30.8 µM | 31 µM | 37.3 µM | 16.9 µM | 32.4 µM | 21.9 µM | 19.7 µM | 19.3 µM |
| O=[N+]([O-])c1cc(C(F)(F)F)ccc1Sc1ccc(C(F)(F)F)cc1[N+](=O)[O-] | > 100 µM | > 100 µM | > 100 µM | > 100 µM | > 100 µM | > 100 µM | > 100 µM | > 100 µM | > 100 µM | > 100 µM | > 100 µM | 5.67 µM | 41.8 µM | 10.6 µM | 41.7 µM | 3.68 µM | 4.62 µM | 8.19 µM | 4.05 µM | 7.7 µM |
| O=C(O)c1c(=O)cccc2ssc12 | 3.44 µM | 24.6 µM | 3.91 µM | 3.73 µM | 3.12 µM | 3.32 µM | 3.45 µM | 5.68 µM | 4.87 µM | 6.32 µM | 1.88 µM | 12 µM | 2 µM | 1.92 µM | 1.35 µM | 1.62 µM | 1.75 µM | 2.4 µM | 2.21 µM | 2.49 µM |
| C=C(CO)[C@@H]1CC[C@]2(COC3CCCCO3)CC[C@]3(C)[C@H](CC[C@@H]4[C@@]5(C)C=C(C=O)C(=O)C(C)(C)[C@@H]5CC[C@]43C)[C@@H]12 (stereo not given in full) | 0.406 µM | 0.7 µM | 0.833 µM | 1.72 µM | 0.856 µM | 1.08 µM | 1.02 µM | 1.8 µM | 0.979 µM | 0.671 µM | 0.185 µM | 0.245 µM | 0.273 µM | 0.523 µM | 0.259 µM | 0.303 µM | 0.311 µM | 0.479 µM | 0.298 µM | 0.228 µM |
| CCCN(CCC)c1ccc(/C=N/NC(=O)c2cccnc2)c(OC)c1 | > 100 µM | 93.2 µM | 46.3 µM | 94.8 µM | 59.2 µM | > 100 µM | > 100 µM | > 100 µM | 82.8 µM | > 100 µM | 32.7 µM | 21.5 µM | 20.1 µM | 27.8 µM | 16.9 µM | 22.7 µM | 26.1 µM | 24.8 µM | 23.5 µM | 36.1 µM |
